Results as given in ChEMBL document CHEMBL2010748, “Structure-Activity Relationship Studies of HIV-1 Integrase Oligonucleotide Inhibitors” (ACS Med Chem Lett, 2011).

These compounds were tested against Human immunodeficiency virus type 1 integrase (Human immunodeficiency virus 1, UniProt Q7ZJM1) (assay: Inhibition of Human immunodeficiency virus 1 integrase 3'-processing activity expressed in Escherichia coli using 21-mer DNA and Mg2+ after 2 hrs by polyacrylamide gel electrophoresis).
Sequence of Human immunodeficiency virus type 1 integrase (Q7ZJM1 whole entry): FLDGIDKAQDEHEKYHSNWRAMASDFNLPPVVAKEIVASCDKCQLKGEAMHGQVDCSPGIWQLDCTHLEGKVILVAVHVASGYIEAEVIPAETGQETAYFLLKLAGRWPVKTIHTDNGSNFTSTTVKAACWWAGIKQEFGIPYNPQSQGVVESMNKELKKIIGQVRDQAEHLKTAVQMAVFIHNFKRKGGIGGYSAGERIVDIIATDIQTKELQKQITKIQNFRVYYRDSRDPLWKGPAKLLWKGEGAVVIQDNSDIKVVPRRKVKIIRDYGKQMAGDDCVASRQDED

Question: `Cc1cn([C@H]2C[C@H](OP(=O)(O)OC[C@H]3O[C@@H](n4cc(C)c(=O)[nH]c4=O)C[C@@H]3OP(=O)(O)OC[C@H]3O[C@@H](n4cc(C)c(=O)[nH]c4=O)C[C@@H]3OP(=O)(S)OC[C@H]3O[C@@H](n4cnc5c(=O)[nH]c(N)nc54)C[C@@H]3OP(=O)(O)OC[C@H]3O[C@@H](n4cc(C)c(=O)[nH]c4=O)C[C@@H]3OP(=O)(S)OC[C@H]3O[C@@H](n4cnc5c(=O)[nH]c(N)nc54)C[C@@H]3OP(=O)(O)OC[C@H]3O[C@@H](n4cc(C)c(=O)[nH]c4=O)C[C@@H]3OP(=O)(S)OCCCCCCNC(=S)Nc3ccc(-c4c5cc(Br)c(=O)c(Br)c-5oc5c(Br)c(O)c(Br)cc45)c(C(=O)O)c3)[C@@H](COP(=O)(O)O[C@H]3C[C@H](n4cc(C)c(=O)[nH]c4=O)O[C@@H]3COP(=O)(O)O[C@H]3C[C@H](n4cc(C)c(=O)[nH]c4=O)O[C@@H]3COP(=O)(O)O[C@H]3C[C@H](n4cnc5c(=O)[nH]c(N)nc54)O[C@@H]3COP(=O)(O)O[C@H]3C[C@H](n4cnc5c(=O)[nH]c(N)nc54)O[C@@H]3CO)O2)c(=O)[nH]c1=O` (some centres undefined) was tested. Which IC50 did it give?
Answer: Its IC50 is 20 nM.

Question: For `Cc1cn([C@H]2C[C@H](OP(=O)(O)OC[C@H]3O[C@@H](n4cnc5c(=O)[nH]c(N)nc54)C[C@@H]3OP(=O)(O)OC[C@H]3O[C@@H](n4cc(C)c(=O)[nH]c4=O)C[C@@H]3OP(=O)(O)OC[C@H]3O[C@@H](n4cnc5c(=O)[nH]c(N)nc54)C[C@@H]3OP(=O)(O)OC[C@H]3O[C@@H](n4cc(C)c(=O)[nH]c4=O)C[C@@H]3OP(=O)(O)OCCCCCCNC(=S)Nc3ccc(-c4c5cc(Br)c(=O)c(Br)c-5oc5c(Br)c(O)c(Br)cc45)c(C(=O)O)c3)[C@@H](COP(=O)(O)O[C@H]3C[C@H](n4cc(C)c(=O)[nH]c4=O)O[C@@H]3COP(=O)(S)O[C@H]3C[C@H](n4cc(C)c(=O)[nH]c4=O)O[C@@H]3COP(=O)(S)O[C@H]3C[C@H](n4cc(C)c(=O)[nH]c4=O)O[C@@H]3COP(=O)(S)O[C@H]3C[C@H](n4cc(C)c(=O)[nH]c4=O)O[C@@H]3COP(=O)(O)O[C@H]3C[C@H](n4cnc5c(=O)[nH]c(N)nc54)O[C@@H]3COP(=O)(O)O[C@H]3C[C@H](n4cnc5c(=O)[nH]c(N)nc54)O[C@@H]3CO)O2)c(=O)[nH]c1=O` (some centres undefined), which IC50 is on record?
Answer: The IC50 was 22 nM.

Question: `Cc1cn([C@H]2C[C@H](OP(=O)(O)OC[C@H]3O[C@@H](n4cc(C)c(=O)[nH]c4=O)C[C@@H]3OP(=O)(S)OC[C@H]3O[C@@H](n4cc(C)c(=O)[nH]c4=O)C[C@@H]3OP(=O)(O)OC[C@H]3O[C@@H](n4cnc5c(=O)[nH]c(N)nc54)C[C@@H]3OP(=O)(O)OC[C@H]3O[C@@H](n4cc(C)c(=O)[nH]c4=O)C[C@@H]3OP(=O)(S)OC[C@H]3O[C@@H](n4cnc5c(=O)[nH]c(N)nc54)C[C@@H]3OP(=O)(O)OC[C@H]3O[C@@H](n4cc(C)c(=O)[nH]c4=O)C[C@@H]3OP(=O)(O)OCCCCCCNC(=S)Nc3ccc(-c4c5cc(Br)c(=O)c(Br)c-5oc5c(Br)c(O)c(Br)cc45)c(C(=O)O)c3)[C@@H](COP(=O)(O)O[C@H]3C[C@H](n4cc(C)c(=O)[nH]c4=O)O[C@@H]3COP(=O)(S)O[C@H]3C[C@H](n4cc(C)c(=O)[nH]c4=O)O[C@@H]3COP(=O)(O)O[C@H]3C[C@H](n4cnc5c(=O)[nH]c(N)nc54)O[C@@H]3COP(=O)(O)O[C@H]3C[C@H](n4cnc5c(=O)[nH]c(N)nc54)O[C@@H]3CO)O2)c(=O)[nH]c1=O` (some centres undefined) was tested. Which IC50 did it give?
Answer: The IC50 was 24 nM.

Question: With `Cc1cn([C@H]2C[C@H](O)[C@@H](COP(=O)(O)O[C@H]3CCO[C@@H]3COP(=O)(O)O[C@H]3CCO[C@@H]3COP(=O)(O)O[C@H]3CCO[C@@H]3COP(=O)(O)O[C@H]3CCO[C@@H]3COP(=O)(O)O[C@H]3CCO[C@@H]3COP(=O)(O)O[C@H]3CCO[C@@H]3COP(=O)(O)O[C@H]3CCO[C@@H]3COP(=O)(O)O[C@H]3CCO[C@@H]3COP(=O)(O)O[C@H]3CCO[C@@H]3COP(=O)(O)O[C@H]3CCO[C@@H]3COP(=O)(O)OCCCCCCNC(=O)c3cc(Cl)c(C(=O)O)c(-c4c5cc(Cl)c(=O)c(Cl)c-5oc5c(Cl)c(O)c(Cl)cc45)c3Cl)O2)c(=O)[nH]c1=O` as the compound, how does the IC50 read?
Answer: The IC50 was 1200 nM.

Question: `Cc1cn([C@H]2C[C@H](OP(=O)(O)OC[C@H]3O[C@@H](n4cnc5c(=O)[nH]c(N)nc54)C[C@@H]3OP(=O)(O)OC[C@H]3O[C@@H](n4cc(C)c(=O)[nH]c4=O)C[C@@H]3OP(=O)(O)OC[C@H]3O[C@@H](n4cnc5c(=O)[nH]c(N)nc54)C[C@@H]3OP(=O)(O)OC[C@H]3O[C@@H](n4cc(C)c(=O)[nH]c4=O)C[C@@H]3O)[C@@H](COP(=O)(O)O[C@H]3CCO[C@@H]3COP(=O)(O)O[C@H]3CCO[C@@H]3COP(=O)(O)O[C@H]3CCO[C@@H]3COP(=O)(O)O[C@H]3CCO[C@@H]3COP(=O)(O)O[C@H]3CCO[C@@H]3COP(=O)(O)O[C@H]3CCO[C@@H]3COP(=O)(O)OCCCCCCNC(=O)c3cc(Cl)c(C(=O)O)c(-c4c5cc(Cl)c(=O)c(Cl)c-5oc5c(Cl)c(O)c(Cl)cc45)c3Cl)O2)c(=O)[nH]c1=O` was tested. Which IC50 did it give?
Answer: Its IC50 is 280 nM.

Question: Which IC50 does the source give for `Cc1cn([C@H]2C[C@H](OP(=O)(O)OC[C@H]3OCC[C@@H]3OP(=O)(O)OC[C@H]3OCC[C@@H]3OP(=O)(O)OC[C@H]3OCC[C@@H]3OP(=O)(O)OC[C@H]3OCC[C@@H]3OP(=O)(O)OC[C@H]3OCC[C@@H]3OP(=O)(O)OC[C@H]3OCC[C@@H]3OP(=O)(O)OC[C@H]3O[C@@H](n4cc(C)c(=O)[nH]c4=O)C[C@@H]3O)[C@@H](COP(=O)(O)O[C@H]3C[C@H](n4cc(C)c(=O)[nH]c4=O)O[C@@H]3COP(=O)(O)O[C@H]3C[C@H](n4cnc5c(=O)[nH]c(N)nc54)O[C@@H]3COP(=O)(O)O[C@H]3C[C@H](n4cnc5c(=O)[nH]c(N)nc54)O[C@@H]3COP(=O)(O)OCCCCCCNC(=O)c3cc(Cl)c(C(=O)O)c(-c4c5cc(Cl)c(=O)c(Cl)c-5oc5c(Cl)c(O)c(Cl)cc45)c3Cl)O2)c(=O)[nH]c1=O` here?
Answer: Its IC50 is 250 nM.

Question: For `Cc1cn([C@H]2C[C@H](O)[C@@H](COP(=O)(O)OCCCOP(=O)(O)OCCCOP(=O)(O)OCCCOP(=O)(O)OCCCOP(=O)(O)OCCCOP(=O)(O)OCCCOP(=O)(O)OCCCOP(=O)(O)OCCCOP(=O)(O)OCCCOP(=O)(O)OCCCOP(=O)(O)OCCCCCCNC(=O)c3cc(Cl)c(C(=O)O)c(-c4c5cc(Cl)c(=O)c(Cl)c-5oc5c(Cl)c(O)c(Cl)cc45)c3Cl)O2)c(=O)[nH]c1=O`, which IC50 is on record?
Answer: Its IC50 is 1300 nM.

Question: `Cc1cn([C@H]2C[C@H](OP(=O)(O)OC[C@H]3O[C@@H](n4cnc5c(=O)[nH]c(N)nc54)C[C@@H]3OP(=O)(O)OC[C@H]3O[C@@H](n4cc(C)c(=O)[nH]c4=O)C[C@@H]3OP(=O)(O)OC[C@H]3O[C@@H](n4cnc5c(=O)[nH]c(N)nc54)C[C@@H]3OP(=O)(O)OC[C@H]3O[C@@H](n4cc(C)c(=O)[nH]c4=O)C[C@@H]3O)[C@@H](COP(=O)(O)OCCCOP(=O)(O)OCCCOP(=O)(O)OCCCOP(=O)(O)OCCCOP(=O)(O)OCCCOP(=O)(O)OCCCOP(=O)(O)OCCCCCCNC(=O)c3cc(Cl)c(C(=O)O)c(-c4c5cc(Cl)c(=O)c(Cl)c-5oc5c(Cl)c(O)c(Cl)cc45)c3Cl)O2)c(=O)[nH]c1=O` was tested. Which IC50 did it give?
Answer: Its IC50 is 250 nM.

Question: `Cc1cn([C@H]2C[C@H](OP(=O)(O)OCCCOP(=O)(O)OCCCOP(=O)(O)OCCCOP(=O)(O)OCCCOP(=O)(O)OCCCOP(=O)(O)OCCCOP(=O)(O)OC[C@H]3O[C@@H](n4cc(C)c(=O)[nH]c4=O)C[C@@H]3O)[C@@H](COP(=O)(O)O[C@H]3C[C@H](n4cc(C)c(=O)[nH]c4=O)O[C@@H]3COP(=O)(O)O[C@H]3C[C@H](n4cnc5c(=O)[nH]c(N)nc54)O[C@@H]3COP(=O)(O)O[C@H]3C[C@H](n4cnc5c(=O)[nH]c(N)nc54)O[C@@H]3COP(=O)(O)OCCCCCCNC(=O)c3cc(Cl)c(C(=O)O)c(-c4c5cc(Cl)c(=O)c(Cl)c-5oc5c(Cl)c(O)c(Cl)cc45)c3Cl)O2)c(=O)[nH]c1=O` was tested. Which IC50 did it give?
Answer: Its IC50 is 310 nM.
